The results in this text go back to the supplement of paper PMC10627819.

Common to all, as to assay: Bliss interaction score (quartile over a dose matrix) (fitness difference); higher = more antagonism (negative = synergy)
One assay concerns S. aureus Newman. A digest of the protocol:
(§1)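 Growth was read as OD595 when cultures entered stationary phase, and each value was divided by the plate's robust no-drug mean and capped at 1. This normalised ratio is the fitness value, and fitness for each single drug came from the combination data. The Bliss score subtracts the expected fitness, taken as the product, from the observed fitness and is given as quartiles across technical, biological and donor/recipient replicates.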

The subject of a further assay is S. aureus DSM 20231. A digest of the protocol: as §1
A further assay concerns S. pneumoniae D39V. A digest of the protocol: as §1
The next assay relates to B. subtilis 168. In outline:
as §1
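Note: first quartile when negative (synergy) and third quartile when positive (antagonism).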

For the compound `CC1(C)S[C@@H]2[C@H](NC(=O)[C@H](N)c3ccc(O)cc3)C(=O)N2[C@H]1C(=O)O` [Amoxicillin] + CC1(C)S[C@@H]2[C@H](NC(=O)Cc3ccccc3)C(=O)N2[C@H]1C(=O)O [PenicillinG], the Bliss interaction score in the assay on S. aureus Newman is 0.0595; in the assay with S. aureus DSM 20231 it was -0.0644; in the assay on S. pneumoniae D39V, -0.0781; with B. subtilis 168 it was -0.186.

As for `CC1(C)S[C@@H]2[C@H](NC(=O)[C@H](N)c3ccc(O)cc3)C(=O)N2[C@H]1C(=O)O` [Amoxicillin] + CO[C@@]12[C@H](COC(N)=O)C3=C(C(=O)C(C)=C(N)C3=O)N1C[C@@H]1N[C@@H]12 [MitomycinC], the Bliss interaction score with S. aureus Newman is 0.0558; with S. aureus DSM 20231, -0.0743; in the assay with S. pneumoniae D39V it was 0.0839; with B. subtilis 168 it was 0.0389.

As to `CO/N=C(\C(=O)N[C@@H]1C(=O)N2C(C(=O)[O-])=C(C[N+]3(C)CCCC3)CS[C@H]12)c1csc(N)n1` [Cefepime] + CC(=O)O[C@H]1C[C@@]2(C)[C@@H](C[C@@H](O)[C@H]3[C@@]4(C)CC[C@@H](O)[C@@H](C)[C@@H]4CC[C@@]32C)/C1=C(\CCC=C(C)C)C(=O)O [Fusidic acid], the Bliss interaction score in the assay on S. aureus Newman was found to be 0.0735; in the assay with S. aureus DSM 20231, 0.062; with S. pneumoniae D39V, 0.174; in the assay with B. subtilis 168 it was 0.0845.

For `CO/N=C(\C(=O)N[C@@H]1C(=O)N2C(C(=O)[O-])=C(C[N+]3(C)CCCC3)CS[C@H]12)c1csc(N)n1` [Cefepime] + CO[C@@]12[C@H](COC(N)=O)C3=C(C(=O)C(C)=C(N)C3=O)N1C[C@@H]1N[C@@H]12 [MitomycinC], the Bliss interaction score with S. aureus Newman was 0.0543; with S. aureus DSM 20231 it was -0.0534; in the assay with S. pneumoniae D39V it was 0.125; in the assay with B. subtilis 168, -0.153.

On to `CN(C)C(=O)C(CCN1CCC(O)(c2ccc(Cl)cc2)CC1)(c1ccccc1)c1ccccc1` [Loperamide] + CN[C@H](CC(C)C)C(=O)N[C@H]1C(=O)N[C@@H](CC(N)=O)C(=O)N[C@H]2C(=O)N[C@H]3C(=O)N[C@H](C(=O)N[C@H](C(=O)O)c4cc(O)cc(O)c4-c4cc3ccc4O)[C@H](O[C@H]3C[C@](C)(N)[C@@H](O)[C@H](C)O3)c3ccc(c(Cl)c3)Oc3cc2cc(c3O[C@@H]2O[C@H](CO)[C@@H](O)[C@H](O)[C@H]2O[C@H]2C[C@](C)(NCc3ccc(-c4ccc(Cl)cc4)cc3)[C@@H](O)[C@H](C)O2)Oc2ccc(cc2Cl)[C@H]1O [Oritavancin], for which the Bliss interaction score with S. aureus Newman was -0.062; in the assay on S. aureus DSM 20231 it was -0.11; in the assay with S. pneumoniae D39V it was -0.0409; in the assay with B. subtilis 168 it was 0.0335.

For `CC1(C)S[C@@H]2[C@H](NC(=O)[C@H](N)c3ccc(O)cc3)C(=O)N2[C@H]1C(=O)O` [Amoxicillin] + C1=CC(=CC(=C1)Cl)NN=C(C#N)C#N [CCCP], the Bliss interaction score was -0.0504 in the assay with S. aureus Newman, -0.0295 in the assay on S. aureus DSM 20231, -0.0978 in the assay on S. pneumoniae D39V and 0.115 in the assay with B. subtilis 168.

For the compound `CCN(CC)CCOC(=O)c1ccc(N)cc1` [Procaine] + Oc1cc(Cl)ccc1Oc1ccc(Cl)cc1Cl [Triclosan], the Bliss interaction score with S. aureus Newman was -0.0125; in the assay on S. aureus DSM 20231, 0.0864; in the assay with S. pneumoniae D39V it was -0.0644; in the assay on B. subtilis 168, 0.0507.

`CO/N=C(\C(=O)N[C@@H]1C(=O)N2C(C(=O)[O-])=C(C[N+]3(C)CCCC3)CS[C@H]12)c1csc(N)n1` [Cefepime] + CC[C@H]1OC(=O)[C@H](C)[C@@H](O[C@H]2C[C@@](C)(OC)[C@@H](O)[C@H](C)O2)[C@H](C)[C@@H](O[C@@H]2O[C@H](C)C[C@H](N(C)C)[C@H]2O)[C@](C)(O)C[C@@H](C)C(=O)[C@H](C)[C@@H](O)[C@]1(C)O [Erythromycin]: the Bliss interaction score in the assay on S. aureus Newman stood at 0.0704; in the assay with S. aureus DSM 20231, 0.0701; with S. pneumoniae D39V it was 0.0938; in the assay with B. subtilis 168, 0.0672.

Turning to `CO/N=C(\C(=O)N[C@@H]1C(=O)N2C(C(=O)[O-])=C(C[N+]3(C)CCCC3)CS[C@H]12)c1csc(N)n1` [Cefepime] + CN[C@H](CC(C)C)C(=O)N[C@H]1C(=O)N[C@@H](CC(N)=O)C(=O)N[C@H]2C(=O)N[C@H]3C(=O)N[C@H](C(=O)N[C@H](C(=O)O)c4cc(O)cc(O)c4-c4cc3ccc4O)[C@H](O[C@H]3C[C@](C)(N)[C@@H](O)[C@H](C)O3)c3ccc(c(Cl)c3)Oc3cc2cc(c3O[C@@H]2O[C@H](CO)[C@@H](O)[C@H](O)[C@H]2O[C@H]2C[C@](C)(NCc3ccc(-c4ccc(Cl)cc4)cc3)[C@@H](O)[C@H](C)O2)Oc2ccc(cc2Cl)[C@H]1O [Oritavancin], the Bliss interaction score was 0.0749 in the assay on S. aureus Newman, 0.0977 with S. aureus DSM 20231, -0.0811 in the assay on S. pneumoniae D39V and 0.0342 in the assay with B. subtilis 168.

As for `CO/N=C(\C(=O)N[C@@H]1C(=O)N2C(C(=O)[O-])=C(C[N+]3(C)CCCC3)CS[C@H]12)c1csc(N)n1` [Cefepime] + N[C@@H]1CONC1=O [CycloserineD], the Bliss interaction score in the assay with S. aureus Newman was -0.0561; in the assay with S. aureus DSM 20231 it was 0.0932; with S. pneumoniae D39V, 0.0926; with B. subtilis 168, 0.0718.

As to `CN(C)C(=O)C(CCN1CCC(O)(c2ccc(Cl)cc2)CC1)(c1ccccc1)c1ccccc1` [Loperamide] + Oc1cc(Cl)ccc1Oc1ccc(Cl)cc1Cl [Triclosan], the Bliss interaction score in the assay with S. aureus Newman is 0.0213; in the assay on S. aureus DSM 20231, -0.0746; with S. pneumoniae D39V, -0.179; with B. subtilis 168, 0.0255.

For `CN(C)C(=O)C(CCN1CCC(O)(c2ccc(Cl)cc2)CC1)(c1ccccc1)c1ccccc1` [Loperamide] + CC[C@H]1OC(=O)[C@H](C)C(=O)[C@H](C)[C@@H](O[C@@H]2O[C@H](C)C[C@H](N(C)C)[C@H]2O)[C@](C)(OC)C[C@@H](C)C(=O)[C@H](C)[C@H]2N(CCCCn3cnc(-c4cccnc4)c3)C(=O)O[C@]12C [Telithromycin], the Bliss interaction score was -0.024 in the assay with S. aureus Newman, 0.0619 in the assay with S. aureus DSM 20231, 0.0977 with S. pneumoniae D39V and 0.0814 in the assay on B. subtilis 168.

`CC1(C)S[C@@H]2[C@H](NC(=O)[C@H](N)c3ccc(O)cc3)C(=O)N2[C@H]1C(=O)O` [Amoxicillin] + O=C(O)[C@H]1/C(=C/CO)O[C@@H]2CC(=O)N21 [Clavulanic]: the Bliss interaction score with S. aureus Newman is -0.117; in the assay with S. aureus DSM 20231 it was -0.114; with S. pneumoniae D39V, -0.0705; in the assay with B. subtilis 168 it was -0.152.
